From patent publication US6071907A, “Tricyclic compounds useful as FPT inhibitors” (Schering Corporation, priority 1997, dated 2000)
Read-outs that look alike come from different tables or passages of the source.

Biological target: T1, partially purified rat brain farnesyl protein transferase (FPT) (Rattus norvegicus, UniProt Q02293+Q04631)
T1 construct: partially purified rat brain farnesyl protein transferase (FPT); from tissue; host or cells: rat brain (partially purified enzyme)
Experiment: FPT IC50 (inhibition of farnesyl protein transferase, in vitro enzyme assay); Ras-CVLS farnesylation
Format: biochemical
Experimental: In vitro enzyme assays: FPT IC50 (inhibition of farnesyl protein transferase, in vitro enzyme assay) are determined by the methods disclosed in […] or WO 95/10516.

[1] = in vitro enzyme assay, Ras-CVLS farnesylation, partially purified rat brain FPT, read-out: FPT IC50

Row | IC50 [1] [nM] | Structure (SMILES) | IC50 [nM]
1 | 18.6 | O=C(CN1C(=O)c2ccccc2C1=O)N1CCC(C2c3ncc(Br)cc3CCc3cc(Cl)cc(Cl)c32)CC1 (single isomer, unassigned; (+)) [Example 4, (+)-4-(3-bromo-8,10-dichloro-6,11-dihydro-5H-benzo[5,6]cyclohepta[1,2-b]pyridin-11-yl)-1-[2-(1,3-dihydro-1,3-dioxo-2H-isoindol-2-yl)-1-oxoethyl]piperidine] | –
2 | 6.8 | O=C(CN1CC[S+]([O-])CC1)N1CCC(C2c3ccc(Cl)c(Br)c3CCc3cc(Br)cnc32)CC1 (centres unmarked) [Example 2, 4-[8-Chloro-3,7-dibromo-6,11-dihydro-5H-benzo[5,6]cyclohepta[1,2-b]pyridin-11-yl]-1-(4-thiomorpholinylacetyl)piperidine S-oxide] | –
3 | 6.8 | CCC(=O)N1CCC(CC(=O)N2CCC([C@H]3c4ncc(Br)cc4CCc4cc(Cl)cc(Br)c43)CC2)CC1 [Example 5, (+)-4-(3,10-Dibromo-8-chloro-6,11-dihydro-5H-benzo[5,6]cyclohepta[1,2-b]pyridin-11 (R)-yl)-1-[(1-oxopropyl-4-piperidinyl)acetyl]piperidine] | –

The remaining lines, values behind:

Row | Structure (SMILES) | IC50 [1] [nM] | IC50 [nM]
4 | CCC1Cc2cc(Cl)cc(Cl)c2C(N2CCN(C(=O)Cc3cc[n+]([O-])cc3)CC2)c2ncc(Br)cc21 (racemic) [Example 3] | – | 6
5 | O=C(CN1CCSCC1)N1CCC(C2c3ccc(Cl)c(Br)c3CCc3cc(Br)cnc32)CC1 (centres unmarked) [Example 1, 4-[8-Chloro-3,7-dibromo-5,6-dihydro-11H-benzo [5, 6]cyclohepta[1,2-b]pyridin-11-yl]-1-(4-thiomorpholinylacetyl)piperidine] | 8.9 | –
